According to PubChem BioAssay (NCI):
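Assay format: 96-well plates, 48-hour exposure. GI50 = concentration required for 50% inhibition of growth. TGI denotes the concentration required for complete inhibition of growth.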

Tests used:
Test in all cases: DTP human tumour cell line panel, 48 h
HCC-2998 colon = test system: HCC-2998 colon
K-562 leukemia = test system: K-562 leukemia
MOLT-4 leukemia = test system: MOLT-4 leukemia
OVCAR-3 ovarian = test system: OVCAR-3 ovarian
OVCAR-4 ovarian = test system: OVCAR-4 ovarian
OVCAR-5 ovarian = test system: OVCAR-5 ovarian
SF-295 CNS = test system: SF-295 CNS
SK-OV-3 ovarian = test system: SK-OV-3 ovarian
SW-620 colon = test system: SW-620 colon
UACC-257 melanoma = test system: UACC-257 melanoma

For `COc1ccc(/C(=N\NC(=S)NN)C(c2ccc(OC)cc2)C2C(=O)Oc3ccccc32)cc1` (stereo not drawn), the TGI (HCC-2998 colon) was greater than 100 µM, the GI50 (K-562 leukemia) was greater than 100 µM and the TGI (K-562 leukemia) was greater than 100 µM. The GI50 (MOLT-4 leukemia) was greater than 100 µM, the TGI (MOLT-4 leukemia) was greater than 100 µM and the GI50 (OVCAR-3 ovarian) was greater than 100 µM. It also gave a TGI (OVCAR-3 ovarian) greater than 100 µM, a GI50 (OVCAR-4 ovarian) greater than 100 µM and a TGI (OVCAR-4 ovarian) greater than 100 µM. The GI50 (OVCAR-5 ovarian) was greater than 100 µM, the TGI (OVCAR-5 ovarian) was greater than 100 µM and the GI50 (SF-295 CNS) was greater than 100 µM. For the same compound, the TGI (SF-295 CNS) was greater than 100 µM, the GI50 (SK-OV-3 ovarian) was greater than 100 µM and the TGI (SK-OV-3 ovarian) was greater than 100 µM. The GI50 (SW-620 colon) was greater than 100 µM, the TGI (SW-620 colon) was greater than 100 µM and the GI50 (UACC-257 melanoma) was greater than 100 µM. The TGI (UACC-257 melanoma) was greater than 100 µM.

`CCOC(=O)c1cc2c3c(c(O)c(OC)c2s1)N(C(=O)c1cc2c4c(c(O)c(OC)c2s1)N(C(C)=O)CC4)CC3` showed a TGI (HCC-2998 colon) greater than 100 µM, a TGI (K-562 leukemia) greater than 100 µM and a TGI (OVCAR-3 ovarian) greater than 100 µM. It also gave a TGI (OVCAR-4 ovarian) greater than 100 µM, a TGI (OVCAR-5 ovarian) greater than 100 µM and a TGI (SF-295 CNS) greater than 100 µM. The TGI (SK-OV-3 ovarian) was greater than 100 µM, the TGI (SW-620 colon) was greater than 100 µM and the TGI (UACC-257 melanoma) was greater than 100 µM.

`CC1(C)CC2C(=O)c3ccccc3NC2c2ccccc21` (stereo not drawn) showed a TGI (HCC-2998 colon) greater than 100 µM, a TGI (K-562 leukemia) greater than 90.6 µM and a TGI (OVCAR-3 ovarian) greater than 100 µM. For the same compound, the TGI (OVCAR-4 ovarian) was greater than 100 µM, the TGI (OVCAR-5 ovarian) was greater than 100 µM and the TGI (SF-295 CNS) was greater than 22.9 µM. It also gave a TGI (SW-620 colon) greater than 100 µM and a TGI (UACC-257 melanoma) greater than 100 µM.

In the case of `O=C(N/N=C/c1cccc(F)c1)c1ccncc1`, the TGI (HCC-2998 colon) is reported as greater than 100 µM, the TGI (MOLT-4 leukemia) is reported as greater than 100 µM and the TGI (SF-295 CNS) is reported as greater than 100 µM. For the same compound, the TGI (SK-OV-3 ovarian) was greater than 100 µM, the TGI (SW-620 colon) was greater than 100 µM and the TGI (UACC-257 melanoma) was greater than 100 µM.

`C=C1C(=O)O[C@H]2[C@H]1CC/C(COC(=O)NCC(C)c1ccc(CC(C)C)cc1)=C\CC[C@@]1(C)O[C@@H]21` (stereo partly drawn) showed a GI50 (HCC-2998 colon) of 2.17 µM, a TGI (HCC-2998 colon) of 6.72 µM and a GI50 (MOLT-4 leukemia) of 0.974 µM. For the same compound, the TGI (MOLT-4 leukemia) was 3.05 µM, the GI50 (OVCAR-3 ovarian) was 0.625 µM and the TGI (OVCAR-3 ovarian) was 1.27 µM. For the same compound, the GI50 (OVCAR-4 ovarian) was 2.31 µM, the TGI (OVCAR-4 ovarian) was 6.59 µM and the GI50 (OVCAR-5 ovarian) was 3.56 µM. It also gave a TGI (OVCAR-5 ovarian) of 7.73 µM, a GI50 (SF-295 CNS) of 4.44 µM and a TGI (SF-295 CNS) of 8.69 µM. For the same compound, the GI50 (SK-OV-3 ovarian) was 5.94 µM, the TGI (SK-OV-3 ovarian) was 11 µM and the GI50 (SW-620 colon) was 0.751 µM. For the same compound, the TGI (SW-620 colon) was 1.79 µM, the GI50 (UACC-257 melanoma) was 5.01 µM and the TGI (UACC-257 melanoma) was 9.89 µM.

`CC(=O)/C(=C/c1ccccc1F)C(=O)c1ccccc1` showed a TGI (HCC-2998 colon) of 45.1 µM, a TGI (MOLT-4 leukemia) of 7.14 µM and a TGI (OVCAR-3 ovarian) of 58.8 µM. The TGI (OVCAR-4 ovarian) was greater than 100 µM, the TGI (OVCAR-5 ovarian) was greater than 100 µM and the TGI (SF-295 CNS) was greater than 100 µM. The TGI (SK-OV-3 ovarian) was greater than 100 µM, the TGI (SW-620 colon) was 56.1 µM and the TGI (UACC-257 melanoma) was 91.3 µM.

`CCOC(=O)C(NC(=O)c1nc[nH]c1[N+](=O)[O-])C(C)C` (stereo not drawn) gave a TGI (HCC-2998 colon) greater than 100 µM, a TGI (K-562 leukemia) greater than 100 µM and a TGI (MOLT-4 leukemia) greater than 100 µM. For the same compound, the TGI (OVCAR-3 ovarian) was greater than 100 µM, the TGI (OVCAR-4 ovarian) was greater than 100 µM and the TGI (SF-295 CNS) was greater than 100 µM. The TGI (SK-OV-3 ovarian) was greater than 100 µM, the TGI (SW-620 colon) was greater than 100 µM and the TGI (UACC-257 melanoma) was greater than 100 µM.

Work on `Cc1c(C(=O)O)oc2ccc([N+](=O)[O-])cc12` yielded a TGI (HCC-2998 colon) greater than 100 µM, a TGI (K-562 leukemia) greater than 100 µM and a TGI (OVCAR-3 ovarian) greater than 100 µM. The TGI (OVCAR-4 ovarian) was greater than 100 µM, the TGI (OVCAR-5 ovarian) was greater than 100 µM and the TGI (SF-295 CNS) was greater than 100 µM. For the same compound, the TGI (SK-OV-3 ovarian) was greater than 100 µM, the TGI (SW-620 colon) was greater than 100 µM and the TGI (UACC-257 melanoma) was greater than 100 µM.

In the case of `CSC(=S)N/N=C/c1nccc2ccccc12`, the TGI (HCC-2998 colon) is reported as 11.3 µM, the TGI (K-562 leukemia) is reported as 14.3 µM and the TGI (MOLT-4 leukemia) is reported as 3.65 µM. It also gave a TGI (OVCAR-4 ovarian) greater than 100 µM, a TGI (OVCAR-5 ovarian) of 8.96 µM and a TGI (SF-295 CNS) of 8.54 µM. For the same compound, the TGI (SK-OV-3 ovarian) was 29.8 µM, the TGI (SW-620 colon) was 18.8 µM and the TGI (UACC-257 melanoma) was 15.5 µM.

`COc1cc2c(cc1OC)C(C(=O)c1cccc(OC)c1OC)C(=O)N(C)CC2` (stereo not drawn) was tested, and the TGI (K-562 leukemia) was greater than 100 µM, the TGI (MOLT-4 leukemia) was greater than 100 µM and the TGI (OVCAR-3 ovarian) was greater than 100 µM. The TGI (OVCAR-4 ovarian) was greater than 100 µM, the TGI (SK-OV-3 ovarian) was greater than 100 µM and the TGI (SW-620 colon) was greater than 100 µM. The TGI (UACC-257 melanoma) was greater than 100 µM.
